The values below come from patent publication US6338963B1, “Use of carbon monoxide dependent guanylyl cyclase modifiers to stimulate neuritogenesis” (NeoTherapeutics, Inc., priority 1994, dated 2002).

The subject of assay [1] is NT-3. Briefly: Summary of effects on growth factor mRNA and protein (Table R): NT-3. Further details: key: ± = mRNA; + = protein; nt = not tested. An excerpt:
(§1) The constellation of effects of AIT-082 on production of mRNA encoding growth factors and on production of growth factor proteins is shown in Table R. The results summarized in […] show both transcriptional and translational effects on growth factors that are in the categories of neurotrophins, pleiotrophins, members of the S100 family of EF hand calcium binding proteins, and members of the TGFβ superfamily. As indicated, effects have been shown at both the mRNA (transcriptional) and protein (translational) levels.

For assay [2], the system named is BDNF mRNA. Briefly: Northern blot of neurotrophin mRNA from astrocytes: BDNF. The format is cell-based, NIH Swiss mice. Further details: key: The conditions which produced a detectable amount of each of the neurotrophin mRNAs are indicated by a “+”; a “++” indicating that at least twice the detectable amount was present; Those blots which were negative are indicated by a “−”. As to conditions: 24 hours. As to the method: Induction of neurotrophin mRNA was determined by northern blot analysis of astrocytes cultured with AIT-082, NGF, or both. The cells were harvested and RNA extracted at 24 hours after treatment.
More particularly, astrocytes from the cerebral cortex of NIH Swiss mice (Harlan) were isolated. Briefly, newborn pups (0-24 hours) were decapitated. Their brains were removed under aseptic conditions and were placed in modified Dulbecco's medium (DMEM) containing 20% heat-inactivated horse serum (Hyclone) (“complete medium”). The neopallium was then dissected from each cerebral hemisphere and minced into 1 mm cubes.
The astrocytes were then isolated by mechanical dissociation. The cubes were vortexed at maximum speed for one minute. The cell suspension was then passed first through 75 mm Nitex then through 10 mm Nitex. The resulting cell suspension was diluted in complete medium to a final concentration of one brain per 10 ml of complete medium. Ten milliliters of the diluted cell suspension was added to each 100 mm Falcon tissue culture plate (Fisher). After 3 days the medium was replaced with 10 ml fresh complete medium and subsequently was replaced twice weekly with DMEM containing 10% heat inactivated horse serum (“growth medium”). After two weeks in culture the astrocytes formed a confluent monolayer.
For RNA extraction, astrocytes were trypsinized. The astrocytes were then replated onto 100 mm PORN coated plates at a cell density of 10^6 cells per plate (10 ml growth medium). […]
The blots were probed with ^32P-labeled cDNA (NGF, NT-3 and BDNF probes) or oligonucleotide probe (FGF-2) by hybridization in Piperazine-N,N′-bis-(2-ethanesulfonic acid) (PIPES) buffer (50 mM PIPES, pH 6.8; 50 mM NaH2PO4; 0.1 M NaCl; 5% SDS and 1 mM EDTA) overnight at 50° C. […] Various concentrations ([…] of total RNA), as determined by spectrophotometry, of each sample were blotted and probed so that quantification could be done after insuring a linear film response. Quantification was performed using MCID Image Analysis (St. Catherine's, Ontario, Canada). […]

Assay [3] has as its system mice. Briefly: Exploratory activity in novel large cage. It counts as in vivo. Particulars: 30 minutes. As for the experimental part:
To measure exploratory behavior, subjects received saline or AIT-082 administration, were placed in a novel large cage (25×48×16 cm, W×L×H), and movement was measured at one-minute intervals for 30 minutes. The large cage (San Diego Instruments, San Diego, Calif.) was equipped with vertical detectors and rearing movements were also recorded.

Assay [4] relates to Swiss Webster mice. The assay can be described thus: Win-shift test, Swiss Webster mice with age-induced memory deficits. It counts as in vivo. Particulars: AIT-082 30 mg/kg. As to the method:
Twelve-month old male Swiss Webster mice were screened for performance in the win-shift foraging test. Subjects were tested at various time delays, beginning at 10 seconds and increasing the inter-trial time interval to 30, 60, 90 and 120 seconds.
Subjects with severe impairment could not remember the correct response at 10 seconds while subjects with mild deficit could remember the correct response with a 30 second inter-trial interval but not at 60 seconds. Subjects with a moderate deficit could remember the correct response with a 10 second inter-trial interval but not […] at 30 seconds. Thus, the win-shift model can detect age-induced impairments in working memory. As will be appreciated by those skilled in the art, this observation is important since it provides the ability to use age-matched subjects with varying degrees of impairment for evaluation of potential therapeutic agents.
Following the establishment of a baseline, six subjects in each of the three groups were treated with AIT-82 (30 mg/kg, one hour before testing) or physostigmine (0.125 mg/kg, 30 minutes before testing) using the win-shift foraging test. The results are presented in Table L directly below and graphically represented in FIG. 9.

Assay [5] has as its system TGFβ1. Briefly: Summary of effects on growth factor mRNA and protein (Table R): TGFβ1. Further details: key: ± = mRNA; + = protein; nt = not tested. As to conditions: Cultured Cells.
Text: as §1

Marks after values point to notes of the source that are not given here.

With `O=C(CCn1cnc2c(=O)[nH]cnc21)Nc1ccc(C(=O)O)cc1` [AIT-082, N-4-carboxyphenyl-3-(6-oxohydropurin-9-yl)propanamide], the “NT-3, effect on mRNA/protein production” value in assay [1] (Aged Brain) is “+”; in assay [1] (Cultured Cells) it was “±”; in assay [1] (Lesioned Spinal Cord) it was “±”; in assay [1] (Normal Brain), “+”. In addition, the “BDNF mRNA” value in assay [2] (AIT-082 100 mM) and in assay [2] (AIT-082 + NGF (40 ng/ml)) was “+” each time. In addition, the exploratory activity entry in assay [3] is “No effects were noted”. Also, the “subjects performing significantly above chance/total number of subjects” value is 6/6* in assay [4] (Mild deficit, interval 60 sec); 4/6 in assay [4] (Mild deficit, interval 90 sec); 2/6 in assay [4] (Mild deficit, interval 120 sec); 1/6 in assay [4] (Mild deficit, interval 150 sec); 1/6 in assay [4] (Mild deficit, interval 180 sec); 0/6 in assay [4] (Mild deficit, interval 210 sec). The “subjects performing significantly above chance/total number of subjects” value is 4/6* in assay [4] (Moderate deficit, interval 30 sec); 2/6 in assay [4] (Moderate deficit, interval 60 sec); 0/6 in assay [4] (Moderate deficit, interval 90 sec); 0/6 in assay [4] (Severe deficit, interval <10 sec). In assay [5], the “TGFβ1, effect on mRNA/protein production” value is given as “+”.
